In PMC12035797, “Peptidomimetics Activating the Proteasome: A New Perspective for Parkinson’s Treatment” (Journal of Medicinal Chemistry, 2025):

How the values were obtained:
[1] = tested on: endogenous α-synuclein in primary cortical cultures; assay: Endogenous α-synuclein level in primary cortical cultures (Simple Western Jess); assay type: cell-based, mouse; settings: 2.5 μM, 7 days; statistical significance only for 1g
Description: The effectiveness of the compounds has also been examined by using proteins as substrates. By means of SDS-PAGE electrophoresis, we checked the extent to which model proteins were digested by the 20S proteasome alone and after its stimulation by 10 μM modulators. […] After incubation with the enzyme in the presence of each modulator, less than 40% of synuclein remained. […] All animal experiments were performed following the protocols evaluated and approved by the Laboratory Animal Centre of the University of Helsinki (Ethics Approval License KEK24-013) and in accordance with the European Community Guidelines (Directive 2010/63/EU). […] The viability and number of neuronal cells were calculated automatically in an Automated Cell Counter (Bio-Rad), plated at a density of 1,000,000 cells per well on 6-well plates and cultured in Neurobasal A Medium (Thermo Fisher Scientific (Gibco), #12349015, Waltham, MA, USA) supplemented with GlutaMAX (Thermo Fisher Scientific (Gibco) #A1286001, Waltham, MA, USA), B-27 Supplement (Thermo Fisher Scientific (Gibco), #17504001, Waltham, MA, USA), and 200 ng/mL Primocin (Invitrogen, ant-pm-1, San Diego, CA, USA). […] Protein concentrations in the cell lysates were determined using a bicinchoninic acid (BCA) assay (Sigma-Aldrich, 3B9643-1L-KC, MO, USA) according to the manufacturer’s instructions. […]

[2] = tested on: hippocampal cells; assay: Survival of hippocampal cells after 7 days with activators (PFF model); assay type: cell-based, mouse; settings: 0.5 and 2.5 μM, PFF-treated
Excerpt: Encouraged by the results received, we tested the ability of the modulator-CPP constructs to increase α-synuclein degradation in a cell model using primary mouse neuronal cells. The presence of Lewy-like neurites and Lewy-like bodies containing aggregated α-synuclein with phosphorylated serine 129 (pS129-αsyn) is a characteristic feature of the brains of people with Parkinson’s disease. To mimic these aggregations, we introduced a solution of preformed fibrils (PFFs) to the media of neuronal cells, which led to the induction of α-synuclein phosphorylation and its aggregation in neurons isolated from mouse embryos. PFFs are purified, prion-like fibrils of α-synuclein that are produced by expressing a recombinant monomeric protein in bacteria. Seven days after PFFs are introduced to the cells, large aggregates are visible in the cell soma, often next to the cell nucleus. We added the PFF solution to the hippocampal cells, and after an hour of incubation, we introduced solutions of the activator. After 7 days, we immunostained neuronal cells using a monoclonal antibody against the NeuN protein, which is commonly used in neuronal differentiation studies to assess their functional status. Additionally, we stained the nuclei of all incubated cells with DAPI. […]

## C[C@@H](O)[C@H](NC(=O)[C@H](Cc1ccccc1)NC(=O)[C@H](Cc1ccc(O)cc1)NC(=O)CN(CCCCN)C(=O)[C@H](CCCNC(=N)N)NC(=O)[C@H](CCCNC(=N)N)NC(=O)[C@H](CCCNC(=N)N)NC(=O)[C@H](CCC(N)=O)NC(=O)[C@H](CCCNC(=N)N)NC(=O)[C@H](CCCNC(=N)N)NC(=O)[C@H](CCCCN)NC(=O)[C@H](CCCCN)NC(=O)[C@@H](N)CCCNC(=N)N)C(=O)NCC(=O)N[C@@H](CO)C(=O)N[C@@H](CCCCN)C(=O)N[C@@H](CC(=O)O)C(=O)N[C@@H](Cc1c[nH]c2ccccc12)C(=O)N[C@@H](CCCNC(=N)N)C(=O)N[C@@H](CO)C(=O)N[C@@H](Cc1ccc(O)cc1)C(=O)N[C@@H](Cc1ccc(O)cc1)C(=O)N[C@@H](CO)C(=O)O [1f]
[1]
  effect on endogenous α-synuclein in primary cortical cultures: able to reduce the amount of endogenous α-synuclein
[2]
  cytotoxicity to hippocampal cells: did not show cytotoxicity to hippocampal cells
